Patent publication US10716829B2, “Method and composition for treatment of hair loss” (NATIONAL HEALTH RESEARCH INSTITUTES, priority 2015, dated 2020)

Test system: bulge keratinocytes (CD34+α6+)
Assay: Colony forming assay on sorted CD34+α6+ bulge keratinocytes in absence or presence of DAPT
Type: cell-based, mouse
Conditions: 10 μM for 7 days, cultured with feeders, vs DMSO-treated cultures; keratinocytes from 8-week-old wild type mice
Description: FIG. 5 is a graph showing quantification of a colony forming assay on sorted CD34+α6+ keratinocytes in the absence or presence of DAFT. Equal numbers of sorted CD34±α6+ keratinocytes from 8-week-old wild type mice were cultured with feeders and treated with either DMSO as a vehicle control or 10 μM DAFT for 7 days. […] P<0.05, **:P<0.01.
We investigated whether the DSB signal seen in Pofut1/Tgfb3-Cre hair follicles was caused by aberrant cell proliferation, which has been reported in the case of oncogene-induced DNA damage checkpoint responses. To test this hypothesis, bulge keratinocytes were isolated from 8 weeks old wild type mice by FACS and cultured in the absence or presence of a γ-secretase inhibitor DAPT (Notch signaling inhibitor).

C[C@H](NC(=O)Cc1cc(F)cc(F)c1)C(=O)N[C@H](C(=O)OC(C)(C)C)c1ccccc1 [DAPT]
numbers of colonies: increases | size of colonies: increases
